In ChEMBL document CHEMBL1955743, “Potent inhibitors of LpxC for the treatment of Gram-negative infections” (J Med Chem, 2012):
≈ marks a conversion by molar mass, not a printed value.

Experiments:
Pseudomonas aeruginosa [1] = experiment: Antibacterial activity against Pseudomonas aeruginosa PAO1 after 16 to 20 hrs by broth microdilution method; type: functional
Staphylococcus aureus = experiment: Antibacterial activity against Staphylococcus aureus ATCC 29213 after 16 to 20 hrs by broth microdilution method; type: functional
Pseudomonas aeruginosa [2] = experiment: Antibacterial activity against mexAB-OprM,mexXY,MexZ-deficient Pseudomonas aeruginosa PAO280 by broth microdilution technique; type: functional
Pseudomonas aeruginosa [3] = experiment: Antibacterial activity against Pseudomonas aeruginosa after 16 to 20 hrs by broth microdilution method; type: functional
Klebsiella pneumoniae = experiment: Antibacterial activity against Klebsiella pneumoniae after 16 to 20 hrs by broth microdilution method; type: functional
Escherichia coli = experiment: Antibacterial activity against Escherichia coli after 16 to 20 hrs by broth microdilution method; type: functional
Klebsiella aerogenes = experiment: Antibacterial activity against Enterobacter aerogenes after 16 to 20 hrs by broth microdilution method; type: functional
Citrobacter freundii = experiment: Antibacterial activity against Citrobacter freundii after 16 to 20 hrs by broth microdilution method; type: functional
Acinetobacter baumannii = experiment: Antibacterial activity against Acinetobacter baumannii after 16 to 20 hrs by broth microdilution method; type: functional
Interstitial collagenase = Interstitial collagenase (Homo sapiens, UniProt P03956); experiment: Inhibition of human MMP1
Stromelysin-1 = Stromelysin-1 (Homo sapiens, UniProt P08254); experiment: Inhibition of human MMP3
Matrilysin = Matrilysin (Homo sapiens, UniProt P09237); experiment: Inhibition of human MMP7
Neutrophil collagenase = Neutrophil collagenase (Homo sapiens, UniProt P22894); experiment: Inhibition of human MMP8
[4] = molecular target: Matrix metalloproteinase-9 (Homo sapiens, UniProt P14780); experiment: Inhibition of human MMP9
Stromelysin-2 = Stromelysin-2 (Homo sapiens, UniProt P09238); experiment: Inhibition of human MMP10
[5] = molecular target: Macrophage metalloelastase (Homo sapiens, UniProt P39900); experiment: Inhibition of human MMP12
Collagenase 3 = Collagenase 3 (Homo sapiens, UniProt P45452); experiment: Inhibition of human MMP13
[6] = molecular target: Matrix metalloproteinase-14 (Homo sapiens, UniProt P50281); experiment: Inhibition of human MMP14
[7] = molecular target: Matrix metalloproteinase-15 (Homo sapiens, UniProt P51511); experiment: Inhibition of human MMP15
[8] = molecular target: Matrix metalloproteinase-16 (Homo sapiens, UniProt P51512); experiment: Inhibition of human MMP16
[9] = molecular target: Matrix metalloproteinase-20 (Homo sapiens, UniProt O60882); experiment: Inhibition of human MMP20
[10] = molecular target: Matrix metalloproteinase-24 (Homo sapiens, UniProt Q9Y5R2); experiment: Inhibition of human MMP24
[11] = molecular target: Matrix metalloproteinase-25 (Homo sapiens, UniProt Q9NPA2); experiment: Inhibition of human MMP25
[12] = molecular target: Matrix metalloproteinase-26 (Homo sapiens, UniProt Q9NRE1); experiment: Inhibition of human MMP26
[13] = molecular target: Disintegrin and metalloproteinase domain-containing protein 17 (Homo sapiens, UniProt P78536); experiment: Inhibition of human TACE
[14] = molecular target: T1, Sodium-dependent noradrenaline transporter (Homo sapiens, UniProt P23975); experiment: Inhibition of human norepinephrine transporter
[15] = Inhibition of PDE11
[16] = Clearance in rat at 10 mg/kg, iv; type: ADME, organism-based; parameters: dose 10 mg/kg, route intravenous; conditions: in vivo
[17] = Volume of distribution at steady state in rat at 10 mg/kg, iv; type: ADME, organism-based; parameters: dose 10 mg/kg, route intravenous; conditions: in vivo, read-out: Vdss
[18] = AUC in rat at 10 mg/kg, iv; type: ADME, organism-based; parameters: dose 10 mg/kg, route intravenous; conditions: plasma
[19] = Half life in rat at 10 mg/kg, iv; type: ADME, organism-based; parameters: dose 10 mg/kg, route intravenous; conditions: in vivo
[20] = Fraction unbound in human plasma; type: ADME, cell-free
Pseudomonas aeruginosa [21] = experiment: Antibacterial activity against penicillin-resistant,quinolone-sensitive Pseudomonas aeruginosa UC12120 clinical isolate infected in sc dosed mouse administered 0.5 and 4 hrs post-infection measured after 24 hrs; type: functional
Pseudomonas aeruginosa [22] = experiment: Antibacterial activity against penicillin-resistant,quinolone-sensitive Pseudomonas aeruginosa UC12120 clinical isolate infected in mouse assessed as log reduction in bacterial burden in spleen administered 0.5 and 4 hrs post-infection measured after 24 hrs; type: functional
Pseudomonas aeruginosa [23] = experiment: Antibacterial activity against penicillin-resistant,quinolone-sensitive Pseudomonas aeruginosa UC12120 clinical isolate infected in sc dosed mouse assessed as host survival administered 0.5 and 4 hrs post-infection measured after 96 hrs; type: functional; conditions: read-out: PD50
Pseudomonas aeruginosa [24] = experiment: Antibacterial activity against Pseudomonas aeruginosa clinical isolates after 16 to 20 hrs by broth microdilution method; type: functional
[25] = molecular target: T1, Sodium-dependent noradrenaline transporter; conditions: 10 uM
Description: Inhibition of human norepinephrine transporter at 10 uM

T1 sequence (P23975 whole entry): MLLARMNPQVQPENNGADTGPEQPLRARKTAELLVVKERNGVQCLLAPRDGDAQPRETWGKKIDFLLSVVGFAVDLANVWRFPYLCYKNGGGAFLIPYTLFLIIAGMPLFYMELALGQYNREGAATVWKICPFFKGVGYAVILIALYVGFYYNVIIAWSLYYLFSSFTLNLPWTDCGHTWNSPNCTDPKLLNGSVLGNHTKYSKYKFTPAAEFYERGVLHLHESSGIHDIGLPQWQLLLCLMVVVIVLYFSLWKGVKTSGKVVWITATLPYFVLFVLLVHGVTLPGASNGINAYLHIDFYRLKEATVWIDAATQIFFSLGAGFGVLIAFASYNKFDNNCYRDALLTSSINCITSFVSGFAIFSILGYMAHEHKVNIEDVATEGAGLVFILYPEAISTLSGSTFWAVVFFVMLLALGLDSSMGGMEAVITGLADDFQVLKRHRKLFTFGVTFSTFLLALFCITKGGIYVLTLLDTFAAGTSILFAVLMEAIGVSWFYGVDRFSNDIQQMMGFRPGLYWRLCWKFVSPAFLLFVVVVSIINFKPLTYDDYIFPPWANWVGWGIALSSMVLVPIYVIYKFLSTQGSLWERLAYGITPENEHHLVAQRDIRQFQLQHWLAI
Chain of Matrix metalloproteinase-20 (O60882 whole entry): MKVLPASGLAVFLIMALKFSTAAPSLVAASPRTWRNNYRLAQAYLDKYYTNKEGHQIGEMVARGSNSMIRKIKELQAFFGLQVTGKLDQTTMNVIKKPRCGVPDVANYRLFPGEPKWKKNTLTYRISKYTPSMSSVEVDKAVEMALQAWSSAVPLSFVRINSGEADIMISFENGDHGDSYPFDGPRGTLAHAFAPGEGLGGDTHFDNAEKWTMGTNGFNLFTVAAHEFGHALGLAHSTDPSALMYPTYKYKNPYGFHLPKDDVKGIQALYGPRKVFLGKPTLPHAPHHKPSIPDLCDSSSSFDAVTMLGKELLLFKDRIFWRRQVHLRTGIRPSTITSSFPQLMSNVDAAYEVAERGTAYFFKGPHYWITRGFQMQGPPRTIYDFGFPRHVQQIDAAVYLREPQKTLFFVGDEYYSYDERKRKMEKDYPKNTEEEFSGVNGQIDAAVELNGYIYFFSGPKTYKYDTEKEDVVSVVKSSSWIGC
Chain of Neutrophil collagenase (P22894 whole entry): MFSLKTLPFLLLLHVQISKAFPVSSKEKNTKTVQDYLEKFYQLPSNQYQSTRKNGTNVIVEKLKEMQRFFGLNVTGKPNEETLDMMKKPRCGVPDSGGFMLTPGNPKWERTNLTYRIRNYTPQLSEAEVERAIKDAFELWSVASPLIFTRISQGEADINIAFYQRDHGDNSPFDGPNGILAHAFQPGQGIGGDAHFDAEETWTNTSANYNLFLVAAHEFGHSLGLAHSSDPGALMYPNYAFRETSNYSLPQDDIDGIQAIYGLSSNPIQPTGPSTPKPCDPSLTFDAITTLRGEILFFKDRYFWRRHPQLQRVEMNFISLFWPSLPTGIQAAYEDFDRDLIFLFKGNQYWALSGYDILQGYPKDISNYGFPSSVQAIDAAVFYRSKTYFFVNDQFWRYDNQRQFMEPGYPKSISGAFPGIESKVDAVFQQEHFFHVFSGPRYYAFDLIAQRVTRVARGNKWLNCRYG
Chain of Interstitial collagenase (P03956 whole entry): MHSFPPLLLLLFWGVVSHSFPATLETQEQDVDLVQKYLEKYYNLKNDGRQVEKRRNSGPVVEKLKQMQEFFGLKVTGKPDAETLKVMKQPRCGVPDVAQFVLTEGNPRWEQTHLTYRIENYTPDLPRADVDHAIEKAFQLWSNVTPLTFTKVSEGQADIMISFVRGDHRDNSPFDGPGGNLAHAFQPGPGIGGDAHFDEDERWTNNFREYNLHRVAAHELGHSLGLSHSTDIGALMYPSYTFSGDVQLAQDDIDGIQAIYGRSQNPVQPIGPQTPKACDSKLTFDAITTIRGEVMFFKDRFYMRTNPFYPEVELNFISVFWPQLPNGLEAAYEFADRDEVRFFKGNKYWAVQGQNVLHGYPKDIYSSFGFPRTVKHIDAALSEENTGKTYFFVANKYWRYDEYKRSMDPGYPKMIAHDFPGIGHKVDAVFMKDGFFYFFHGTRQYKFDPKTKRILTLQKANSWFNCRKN
Chain of Matrix metalloproteinase-15 (P51511 whole entry): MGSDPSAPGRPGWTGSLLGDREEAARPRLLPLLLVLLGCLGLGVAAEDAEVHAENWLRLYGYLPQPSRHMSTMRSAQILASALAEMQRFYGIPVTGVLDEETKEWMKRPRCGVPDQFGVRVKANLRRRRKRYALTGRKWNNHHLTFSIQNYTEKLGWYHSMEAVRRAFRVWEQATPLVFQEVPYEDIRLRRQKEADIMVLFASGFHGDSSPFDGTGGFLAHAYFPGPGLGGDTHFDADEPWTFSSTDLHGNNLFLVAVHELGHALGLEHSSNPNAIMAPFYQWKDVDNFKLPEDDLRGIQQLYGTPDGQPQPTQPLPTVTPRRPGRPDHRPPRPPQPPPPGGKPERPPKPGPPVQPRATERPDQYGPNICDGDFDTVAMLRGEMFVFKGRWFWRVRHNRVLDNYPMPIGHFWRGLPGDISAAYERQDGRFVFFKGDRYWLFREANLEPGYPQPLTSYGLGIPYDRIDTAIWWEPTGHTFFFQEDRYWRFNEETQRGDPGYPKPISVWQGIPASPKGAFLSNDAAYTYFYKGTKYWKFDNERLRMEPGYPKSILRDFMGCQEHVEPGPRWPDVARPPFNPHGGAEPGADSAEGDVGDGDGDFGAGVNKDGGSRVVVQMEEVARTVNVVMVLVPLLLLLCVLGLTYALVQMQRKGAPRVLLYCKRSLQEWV
Chain of Matrix metalloproteinase-26 (Q9NRE1 whole entry, the tested form may be a part): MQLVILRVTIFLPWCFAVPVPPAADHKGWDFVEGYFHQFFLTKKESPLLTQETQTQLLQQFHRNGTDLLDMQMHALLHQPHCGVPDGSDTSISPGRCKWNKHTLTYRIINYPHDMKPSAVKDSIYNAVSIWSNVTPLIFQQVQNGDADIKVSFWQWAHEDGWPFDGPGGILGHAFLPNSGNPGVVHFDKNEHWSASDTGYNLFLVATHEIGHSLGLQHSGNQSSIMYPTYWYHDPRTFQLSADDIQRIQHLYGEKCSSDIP
Chain of Macrophage metalloelastase (P39900 whole entry): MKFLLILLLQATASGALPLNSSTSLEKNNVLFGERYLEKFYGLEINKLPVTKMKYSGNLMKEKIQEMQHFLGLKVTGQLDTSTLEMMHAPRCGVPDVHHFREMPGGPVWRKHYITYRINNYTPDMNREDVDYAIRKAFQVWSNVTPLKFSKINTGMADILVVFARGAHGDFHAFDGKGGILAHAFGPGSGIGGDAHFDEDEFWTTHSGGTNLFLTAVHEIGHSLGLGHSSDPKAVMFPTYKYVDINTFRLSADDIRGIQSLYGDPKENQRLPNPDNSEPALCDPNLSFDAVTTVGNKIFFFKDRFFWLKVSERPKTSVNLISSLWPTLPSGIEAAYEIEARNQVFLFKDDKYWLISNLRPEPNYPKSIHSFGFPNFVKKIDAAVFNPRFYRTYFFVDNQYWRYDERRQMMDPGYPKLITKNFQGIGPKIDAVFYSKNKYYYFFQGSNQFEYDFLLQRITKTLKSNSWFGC
Chain of Stromelysin-1 (P08254 whole entry): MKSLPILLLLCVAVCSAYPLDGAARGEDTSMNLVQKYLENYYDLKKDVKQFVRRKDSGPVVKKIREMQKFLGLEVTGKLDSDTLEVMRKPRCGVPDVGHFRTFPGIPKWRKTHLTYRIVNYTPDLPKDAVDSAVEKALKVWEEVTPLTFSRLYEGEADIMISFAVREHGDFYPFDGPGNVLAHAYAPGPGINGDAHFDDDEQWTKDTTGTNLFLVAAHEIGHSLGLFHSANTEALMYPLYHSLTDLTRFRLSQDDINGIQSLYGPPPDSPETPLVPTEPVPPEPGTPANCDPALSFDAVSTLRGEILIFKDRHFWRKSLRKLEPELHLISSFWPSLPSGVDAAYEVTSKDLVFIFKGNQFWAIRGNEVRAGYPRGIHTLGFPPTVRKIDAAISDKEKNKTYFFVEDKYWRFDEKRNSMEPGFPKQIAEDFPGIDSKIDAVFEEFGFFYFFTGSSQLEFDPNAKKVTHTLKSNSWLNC
Chain of Matrilysin (P09237 whole entry): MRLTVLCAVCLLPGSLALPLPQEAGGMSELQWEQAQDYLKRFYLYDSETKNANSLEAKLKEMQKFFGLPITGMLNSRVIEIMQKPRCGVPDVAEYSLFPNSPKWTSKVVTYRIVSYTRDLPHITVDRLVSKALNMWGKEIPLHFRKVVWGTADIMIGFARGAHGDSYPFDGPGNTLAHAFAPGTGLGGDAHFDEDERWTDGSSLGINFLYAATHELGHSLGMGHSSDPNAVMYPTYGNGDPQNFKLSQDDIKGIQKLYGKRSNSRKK
Chain of Matrix metalloproteinase-24 (Q9Y5R2 whole entry): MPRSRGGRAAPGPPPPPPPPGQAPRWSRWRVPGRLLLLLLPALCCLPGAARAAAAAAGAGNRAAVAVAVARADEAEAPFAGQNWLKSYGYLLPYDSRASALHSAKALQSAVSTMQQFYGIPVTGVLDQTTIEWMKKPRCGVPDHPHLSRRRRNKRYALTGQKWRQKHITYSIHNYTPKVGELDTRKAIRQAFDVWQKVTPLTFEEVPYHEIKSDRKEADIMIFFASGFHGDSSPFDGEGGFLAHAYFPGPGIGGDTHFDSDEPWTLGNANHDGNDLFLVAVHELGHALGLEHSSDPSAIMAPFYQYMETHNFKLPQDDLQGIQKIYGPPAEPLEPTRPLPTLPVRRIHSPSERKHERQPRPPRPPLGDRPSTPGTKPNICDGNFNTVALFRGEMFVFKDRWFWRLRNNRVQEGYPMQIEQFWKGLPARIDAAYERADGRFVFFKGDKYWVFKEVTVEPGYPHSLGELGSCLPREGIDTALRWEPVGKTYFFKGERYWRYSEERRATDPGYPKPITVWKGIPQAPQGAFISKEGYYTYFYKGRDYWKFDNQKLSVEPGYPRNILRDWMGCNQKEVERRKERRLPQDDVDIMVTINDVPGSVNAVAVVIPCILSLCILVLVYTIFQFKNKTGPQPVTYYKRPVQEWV

In the case of `C[C@@](CCc1ccc(-c2ccccc2)cc1)(C(=O)NO)S(C)(=O)=O`, the MIC (Pseudomonas aeruginosa [1]) is reported as 0.125 µg/mL (≈ 0.36 µM), the MIC (Staphylococcus aureus) is reported as over 64 µg/mL and the MIC (Pseudomonas aeruginosa [2]) is reported as 0.008 µg/mL (≈ 0.023 µM). For the same compound, the MIC90 (Pseudomonas aeruginosa [3]) was 4 µg/mL (≈ 11.5 µM), the MIC90 (Klebsiella pneumoniae) was 16 µg/mL (≈ 46.1 µM) and the MIC90 (Escherichia coli) was 2 µg/mL (≈ 5.76 µM). It also gave an MIC90 (Klebsiella aerogenes) of 4 µg/mL (≈ 11.5 µM), an MIC90 (Citrobacter freundii) of 8 µg/mL (≈ 23 µM) and an MIC90 (Acinetobacter baumannii) of 32 µg/mL (≈ 92.1 µM). It also gave a Ki (Interstitial collagenase) of over 10 µM, a Ki (Stromelysin-1) of over 10 µM and a Ki (Matrilysin) of over 10 µM. The Ki (Neutrophil collagenase) was over 10 µM, the Ki [4] was over 10 µM and the Ki (Stromelysin-2) was over 10 µM. The Ki [5] was 1.35 µM, the Ki (Collagenase 3) was 7.73 µM and the Ki [6] was over 10 µM. For the same compound, the Ki [7] was over 10 µM, the Ki [8] was over 10 µM and the Ki [9] was over 10 µM. The Ki [10] was over 10 µM, the Ki [11] was over 10 µM and the Ki [12] was over 10 µM. For the same compound, the Ki [13] was over 10 µM, the IC50 [14] was 0.34 µM and the Ki [14] was 0.25 µM. It also gave an IC50 [15] of 18 µM, a clearance [16] of 58 mL/min/kg and a Vd [17] of 2.7 L/kg. For the same compound, the AUC [18] was 2800 ng·h/mL, the half-life [19] was 3.2 h and the fraction unbound [20] was 0.02. It also gave an ED50 (Pseudomonas aeruginosa [21]) of 35 mg/kg, an FC (Pseudomonas aeruginosa [22]) of 6.2 and an ED50 (Pseudomonas aeruginosa [23]) of 63.4 mg/kg. The MIC50 (Pseudomonas aeruginosa [24]) was 0.5 µg/mL (≈ 1.44 µM), the MIC90 (Pseudomonas aeruginosa [24]) was 2 µg/mL (≈ 5.76 µM) and the inhibition [25] was over 50%.
